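Each compound was tested at five concentrations against cells in 96-well plates for 48 hours. At the GI50, growth is halved.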 The source made the active and inactive calls. No stated cut-off is given here; in the data, active = GI50 up to about 1.1 µM and inactive = higher.
Key:
Assay in all cases: growth of human tumour cells (NCI), 48 h
786-0 = tested on: 786-0
COLO 205 = tested on: COLO 205
EKVX = tested on: EKVX
HCC 2998 = tested on: HCC 2998
HCT-116 = tested on: HCT-116
HCT-15 = tested on: HCT-15
IGROV-1 = tested on: IGROV-1
K562 = tested on: K562
LOX IMVI = tested on: LOX IMVI
MOLT-4 = tested on: MOLT-4
NCI-H23 = tested on: NCI-H23
OVCAR-4 = tested on: OVCAR-4
SK-MEL-2 = tested on: SK-MEL-2
SK-OV-3 = tested on: SK-OV-3
SNB-19 = tested on: SNB-19
UACC-257 = tested on: UACC-257
UACC-62 = tested on: UACC-62
UO-31 = tested on: UO-31
A498 = tested on: A498
HOP-92 = tested on: HOP-92

Measured: GI50

[O-][N+]1=C2CCC/C(=N/O)C2(O)C2CCCCC21N1CCOCC1 (configuration not stated)
inactive: 786-0 > 100 µM | COLO 205 > 100 µM | EKVX > 100 µM | HCC 2998 > 100 µM | HCT-116 > 100 µM | IGROV-1 > 100 µM | K562 > 100 µM | LOX IMVI > 100 µM | MOLT-4 > 100 µM | NCI-H23 > 100 µM | OVCAR-4 > 100 µM | SK-MEL-2 > 100 µM | SK-OV-3 > 100 µM | SNB-19 > 100 µM | UACC-257 > 100 µM | UACC-62 > 100 µM | UO-31 > 100 µM
> 100 µM: HCT-15

O=C1C[C@@H]2[C@@H](C=CC23CCCC3)N1O
inactive: 786-0 > 100 µM | A498 > 100 µM | COLO 205 > 100 µM | EKVX > 100 µM | HCC 2998 > 100 µM | HCT-116 > 100 µM | IGROV-1 > 100 µM | K562 > 100 µM | LOX IMVI > 100 µM | MOLT-4 > 100 µM | NCI-H23 > 100 µM | OVCAR-4 > 100 µM | SK-MEL-2 > 100 µM | SK-OV-3 > 100 µM | SNB-19 > 100 µM | UACC-257 > 100 µM | UACC-62 > 100 µM | UO-31 > 100 µM
> 100 µM: HCT-15

COC(=O)C(=O)c1c2ccccc2n2ccc3c4ccccc4[nH]c3c12
> 10 µM: HCT-15
active: EKVX 0.406 µM
inactive: 786-0 > 10 µM | COLO 205 > 10 µM | HCC 2998 > 10 µM | HCT-116 > 10 µM | HOP-92 > 10 µM | IGROV-1 > 10 µM | K562 > 10 µM | LOX IMVI > 10 µM | MOLT-4 > 10 µM | NCI-H23 > 10 µM | OVCAR-4 > 10 µM | SK-MEL-2 > 10 µM | SK-OV-3 > 10 µM | SNB-19 > 10 µM | UACC-257 > 10 µM | UACC-62 > 10 µM | UO-31 > 10 µM

COCOc1cc(OC)c(Br)cc1C/C(=N/O)C(=O)OC
> 100 µM: HCT-15
inactive: 786-0 > 100 µM | COLO 205 > 100 µM | EKVX 49 µM | HCC 2998 > 100 µM | HCT-116 > 100 µM | IGROV-1 56.4 µM | K562 49.7 µM | LOX IMVI 73.5 µM | MOLT-4 27.5 µM | NCI-H23 90.4 µM | OVCAR-4 52.5 µM | SK-MEL-2 88.5 µM | SK-OV-3 > 100 µM | SNB-19 > 100 µM | UACC-257 46.6 µM | UACC-62 40.6 µM | UO-31 53.7 µM

O=S(O)CCCCCSSSCCCCCS(=O)O
inactive: A498 > 100 µM | EKVX > 100 µM | HCC 2998 > 100 µM | HCT-116 15.5 µM | K562 14.6 µM | LOX IMVI 27.1 µM | MOLT-4 4.81 µM | NCI-H23 29.8 µM | OVCAR-4 52 µM | SK-MEL-2 25.9 µM | SK-OV-3 > 100 µM | SNB-19 > 100 µM | UACC-257 24.5 µM | UACC-62 22.8 µM | UO-31 35.3 µM

Oc1c(C(Nc2cccc3cccnc23)c2ccccc2)ccc2cccnc12 (configuration not stated)
inactive: 786-0 4.07 µM | A498 22.6 µM | COLO 205 6.25 µM | EKVX 4.84 µM | HCC 2998 14.2 µM | HCT-116 5.6 µM | IGROV-1 8.04 µM | K562 3.32 µM | LOX IMVI 3.94 µM | MOLT-4 1.9 µM | NCI-H23 5.43 µM | OVCAR-4 17.5 µM | SNB-19 4.69 µM | UACC-257 4.38 µM | UACC-62 21.6 µM | UO-31 4.11 µM

Nc1nc(=O)c2c([nH]1)NCC(CNc1ccc(C(=O)N[C@@H](CCC(=O)O)C(=O)O)cc1)N2C=O (some centres not stated) [LEUCOVORIN CALCIUM]
inactive: COLO 205 > 125 µM | EKVX > 125 µM | HCC 2998 > 125 µM | HCT-116 > 125 µM | HOP-92 > 125 µM | IGROV-1 > 125 µM | K562 39.5 µM | LOX IMVI > 125 µM | MOLT-4 > 125 µM | NCI-H23 > 125 µM | OVCAR-4 > 125 µM | SK-MEL-2 40.4 µM | SK-OV-3 > 125 µM | SNB-19 > 125 µM | UACC-257 > 125 µM | UACC-62 > 125 µM | UO-31 > 125 µM
> 125 µM: HCT-15

CCOC(=O)N1c2ccccc2C(C)=CC(C)C1C (configuration not stated)
5.36 µM: HCT-15
inactive: 786-0 20.6 µM | A498 27 µM | COLO 205 29.2 µM | EKVX 35.3 µM | HCC 2998 45.6 µM | HCT-116 6.73 µM | IGROV-1 44 µM | K562 18.9 µM | LOX IMVI 7.53 µM | MOLT-4 39.4 µM | NCI-H23 22.8 µM | OVCAR-4 60.5 µM | SK-MEL-2 32.7 µM | SK-OV-3 22.4 µM | SNB-19 42.8 µM | UACC-257 12.7 µM | UACC-62 32.6 µM | UO-31 55.7 µM

C[C@@]12[Se]c3ccccc3[C@]1(C)[Se]c1ccccc12
inactive: 786-0 4.85 µM | COLO 205 3.73 µM | EKVX > 100 µM | HCC 2998 6.47 µM | HCT-116 > 100 µM | HOP-92 4.79 µM | K562 4.17 µM | LOX IMVI 5.89 µM | NCI-H23 > 100 µM | OVCAR-4 68.2 µM | SK-MEL-2 3.85 µM | UACC-62 2.23 µM

O=C1CCC2=C(CCC2)N1CCc1ccc2c(c1)OCO2
inactive: 786-0 > 100 µM | COLO 205 60.3 µM | EKVX 47 µM | HCC 2998 > 100 µM | HCT-116 48.2 µM | IGROV-1 58.7 µM | K562 25.7 µM | LOX IMVI 59.6 µM | MOLT-4 15.4 µM | NCI-H23 38 µM | OVCAR-4 > 100 µM | SK-MEL-2 29.9 µM | SK-OV-3 > 100 µM | SNB-19 81.7 µM | UACC-257 84.9 µM | UACC-62 65 µM | UO-31 21.6 µM
43.1 µM: HCT-15

O=[N+]([O-])/C(C(Cl)=C(Cl)Cl)=C1\NCCS1
inactive: 786-0 36.1 µM | A498 26.1 µM | COLO 205 40.1 µM | EKVX > 100 µM | HCC 2998 34.4 µM | HCT-116 43.3 µM | IGROV-1 62.4 µM | K562 18.8 µM | LOX IMVI 20.1 µM | MOLT-4 21.9 µM | NCI-H23 31.5 µM | OVCAR-4 29.1 µM | SK-OV-3 > 100 µM | SNB-19 > 100 µM | UACC-257 42.2 µM | UACC-62 39.7 µM | UO-31 41.1 µM
35.6 µM: HCT-15

COC(=O)C1=C(C(=O)OC)C23CC1C1C(C(=O)OC)=C(C(=O)OC)C12C1C=CC3C2C(=O)OC(=O)C21 (configuration not stated)
inactive: 786-0 94.2 µM | COLO 205 28.3 µM | EKVX > 100 µM | HCC 2998 66.7 µM | HCT-116 37.7 µM | HOP-92 25.3 µM | IGROV-1 59 µM | K562 24 µM | MOLT-4 38.6 µM | NCI-H23 37.8 µM | OVCAR-4 39.4 µM | SK-MEL-2 35 µM | SNB-19 62.1 µM | UACC-257 45.2 µM | UACC-62 31.5 µM | UO-31 84.9 µM
42.1 µM: HCT-15

Source: ChEMBL document CHEMBL1201862, “PubChem BioAssay data set” (2004)
